Source: ChEMBL document CHEMBL4507277

Key:
[1] = molecular target: Dual specificity testis-specific protein kinase 1 (Homo sapiens) (UniProt Q15569); details: Compound concentration 1000.0 nM
[2] = molecular target: Ephrin type-A receptor 5 (Homo sapiens) (UniProt P54756); details: Compound concentration 1000.0 nM
[3] = molecular target: Ephrin type-B receptor 1 (Homo sapiens) (UniProt P54762); details: Compound concentration 1000.0 nM
[4] = molecular target: Transient receptor potential cation channel subfamily M member 6 (Homo sapiens) (UniProt Q9BX84); details: Compound concentration 1000.0 nM
[5] = molecular target: High affinity nerve growth factor receptor (Homo sapiens) (UniProt P04629); details: Compound concentration 1000.0 nM
[6] = molecular target: Tyrosine-protein kinase receptor UFO (Homo sapiens) (UniProt P30530); details: Compound concentration 1000.0 nM
[7] = molecular target: Protein kinase C epsilon type (Homo sapiens) (UniProt Q02156); details: Compound concentration 1000.0 nM
[8] = molecular target: Cyclin-dependent kinase 4 (Homo sapiens) (UniProt P11802); details: Compound concentration 1000.0 nM
[9] = molecular target: Testis-specific serine/threonine-protein kinase 3 (Homo sapiens) (UniProt Q96PN8); details: Compound concentration 1000.0 nM
Testis-specific serine/threonine-protein kinase 3 (Homo sapiens), sequence (Q96PN8 whole entry): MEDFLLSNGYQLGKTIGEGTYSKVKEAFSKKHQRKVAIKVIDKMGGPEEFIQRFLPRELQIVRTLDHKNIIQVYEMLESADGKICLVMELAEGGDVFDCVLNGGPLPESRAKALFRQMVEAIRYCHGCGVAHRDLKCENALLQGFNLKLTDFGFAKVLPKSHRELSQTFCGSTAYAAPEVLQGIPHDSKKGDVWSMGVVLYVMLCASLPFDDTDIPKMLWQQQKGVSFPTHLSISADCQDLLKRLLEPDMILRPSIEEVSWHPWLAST

[10] = molecular target: Fibroblast growth factor receptor 1 (Homo sapiens) (UniProt P11362); details: Compound concentration 1000.0 nM
Fibroblast growth factor receptor 1 (Homo sapiens), sequence (P11362 22-822 limits assumed): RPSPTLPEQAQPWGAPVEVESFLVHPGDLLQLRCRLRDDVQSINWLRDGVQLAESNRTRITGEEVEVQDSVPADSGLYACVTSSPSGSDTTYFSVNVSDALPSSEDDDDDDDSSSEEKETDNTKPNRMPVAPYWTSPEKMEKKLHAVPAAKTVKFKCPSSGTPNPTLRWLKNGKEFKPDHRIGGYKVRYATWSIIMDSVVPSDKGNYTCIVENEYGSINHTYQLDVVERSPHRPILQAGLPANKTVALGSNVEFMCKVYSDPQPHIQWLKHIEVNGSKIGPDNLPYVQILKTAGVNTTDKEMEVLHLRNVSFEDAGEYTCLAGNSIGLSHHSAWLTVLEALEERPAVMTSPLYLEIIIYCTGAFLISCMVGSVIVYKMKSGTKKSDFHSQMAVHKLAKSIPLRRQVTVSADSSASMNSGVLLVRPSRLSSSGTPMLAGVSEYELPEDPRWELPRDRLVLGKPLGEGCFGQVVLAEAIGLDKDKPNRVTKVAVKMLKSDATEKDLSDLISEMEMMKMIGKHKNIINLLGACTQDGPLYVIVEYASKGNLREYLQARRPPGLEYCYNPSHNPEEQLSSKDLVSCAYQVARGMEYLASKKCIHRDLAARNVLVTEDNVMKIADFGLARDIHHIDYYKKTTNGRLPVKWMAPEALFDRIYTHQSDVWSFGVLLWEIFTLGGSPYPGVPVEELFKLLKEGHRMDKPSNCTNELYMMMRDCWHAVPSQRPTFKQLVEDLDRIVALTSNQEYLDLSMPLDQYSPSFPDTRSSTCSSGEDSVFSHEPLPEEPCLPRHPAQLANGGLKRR

[11] = molecular target: Proto-oncogene tyrosine-protein kinase ROS (Homo sapiens) (UniProt P08922); details: Compound concentration 1000.0 nM
[12] = molecular target: 5-hydroxytryptamine receptor 2A (Homo sapiens) (UniProt P28223); details: Compound concentration 10.0 uM
[13] = molecular target: Aurora kinase B (Homo sapiens) (UniProt Q96GD4); details: Compound concentration 1000.0 nM
[14] = molecular target: Phosphatidylinositol 4,5-bisphosphate 3-kinase catalytic subunit alpha isoform (Homo sapiens) (UniProt P42336); details: Compound concentration 1000.0 nM
[15] = molecular target: Serine/threonine-protein kinase Nek3 (Homo sapiens) (UniProt P51956); details: Compound concentration 1000.0 nM
[16] = molecular target: Ephrin type-A receptor 8 (Homo sapiens) (UniProt P29322); details: Compound concentration 1000.0 nM
Ephrin type-A receptor 8 (Homo sapiens), sequence (P29322 whole entry): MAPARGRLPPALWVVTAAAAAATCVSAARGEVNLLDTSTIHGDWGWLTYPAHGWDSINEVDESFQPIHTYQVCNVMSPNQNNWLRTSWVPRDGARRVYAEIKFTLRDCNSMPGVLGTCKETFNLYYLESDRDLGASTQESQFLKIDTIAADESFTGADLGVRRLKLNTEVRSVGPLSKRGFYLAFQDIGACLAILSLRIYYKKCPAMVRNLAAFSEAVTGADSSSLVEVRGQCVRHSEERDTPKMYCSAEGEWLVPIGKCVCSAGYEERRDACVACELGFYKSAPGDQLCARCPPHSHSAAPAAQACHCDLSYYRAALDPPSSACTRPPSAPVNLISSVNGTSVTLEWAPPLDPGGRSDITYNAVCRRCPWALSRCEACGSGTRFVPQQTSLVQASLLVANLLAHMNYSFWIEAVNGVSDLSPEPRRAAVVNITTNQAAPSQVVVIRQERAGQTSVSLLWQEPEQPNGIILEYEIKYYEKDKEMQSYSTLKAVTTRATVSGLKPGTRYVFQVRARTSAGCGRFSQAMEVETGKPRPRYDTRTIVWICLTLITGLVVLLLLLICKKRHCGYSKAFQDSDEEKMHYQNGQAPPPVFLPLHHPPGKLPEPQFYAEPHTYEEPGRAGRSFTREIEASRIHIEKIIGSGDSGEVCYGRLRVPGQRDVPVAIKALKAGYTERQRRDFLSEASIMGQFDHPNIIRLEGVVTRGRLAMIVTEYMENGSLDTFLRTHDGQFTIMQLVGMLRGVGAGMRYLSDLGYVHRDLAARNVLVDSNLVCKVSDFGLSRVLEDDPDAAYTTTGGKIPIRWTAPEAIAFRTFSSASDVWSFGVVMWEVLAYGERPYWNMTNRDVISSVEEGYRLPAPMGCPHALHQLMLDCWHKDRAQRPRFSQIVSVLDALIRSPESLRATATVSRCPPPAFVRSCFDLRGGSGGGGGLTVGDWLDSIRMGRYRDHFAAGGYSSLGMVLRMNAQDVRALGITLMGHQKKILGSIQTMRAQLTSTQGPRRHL

[17] = molecular target: Tyrosine-protein kinase Mer (Homo sapiens) (UniProt Q12866); details: Compound concentration 1000.0 nM
[18] = system: Receptor-type tyrosine-protein kinase FLT3 (Homo sapiens), P36888 [UNDEFINED MUTATION]; details: Compound concentration 1000.0 nM
[19] = molecular target: Serine/threonine-protein kinase 24 (Homo sapiens) (UniProt Q9Y6E0); details: Compound concentration 1000.0 nM
[20] = molecular target: Calcium/calmodulin-dependent protein kinase type 1D (Homo sapiens) (UniProt Q8IU85); details: Compound concentration 1000.0 nM
Calcium/calmodulin-dependent protein kinase type 1D (Homo sapiens), sequence (Q8IU85 whole entry, looked up): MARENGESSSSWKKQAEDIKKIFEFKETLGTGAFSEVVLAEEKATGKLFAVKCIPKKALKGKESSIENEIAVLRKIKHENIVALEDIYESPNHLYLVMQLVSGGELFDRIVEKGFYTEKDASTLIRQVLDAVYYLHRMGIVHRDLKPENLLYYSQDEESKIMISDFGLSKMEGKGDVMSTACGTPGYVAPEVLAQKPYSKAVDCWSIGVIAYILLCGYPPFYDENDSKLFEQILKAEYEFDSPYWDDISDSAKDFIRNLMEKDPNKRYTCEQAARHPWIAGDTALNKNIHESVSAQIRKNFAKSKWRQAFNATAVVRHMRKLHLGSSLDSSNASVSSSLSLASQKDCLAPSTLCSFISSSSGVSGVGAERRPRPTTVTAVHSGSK

[21] = molecular target: TRAF2 and NCK-interacting protein kinase (Homo sapiens) (UniProt Q9UKE5); details: Compound concentration 1000.0 nM
[22] = molecular target: Serine/threonine-protein kinase MRCK alpha (Homo sapiens) (UniProt Q5VT25); details: Compound concentration 1000.0 nM
[23] = molecular target: Serine/threonine-protein kinase TBK1 (Homo sapiens) (UniProt Q9UHD2); details: Compound concentration 1000.0 nM
[24] = molecular target: Glycogen synthase kinase-3 beta (Homo sapiens) (UniProt P49841); details: Compound concentration 1000.0 nM
[25] = system: Mast/stem cell growth factor receptor Kit (Homo sapiens), P10721 [D816H]; details: Compound concentration 1000.0 nM
[26] = molecular target: Interferon-induced, double-stranded RNA-activated protein kinase (Homo sapiens) (UniProt P19525); details: Compound concentration 1000.0 nM
Interferon-induced, double-stranded RNA-activated protein kinase (Homo sapiens), sequence (P19525 whole entry): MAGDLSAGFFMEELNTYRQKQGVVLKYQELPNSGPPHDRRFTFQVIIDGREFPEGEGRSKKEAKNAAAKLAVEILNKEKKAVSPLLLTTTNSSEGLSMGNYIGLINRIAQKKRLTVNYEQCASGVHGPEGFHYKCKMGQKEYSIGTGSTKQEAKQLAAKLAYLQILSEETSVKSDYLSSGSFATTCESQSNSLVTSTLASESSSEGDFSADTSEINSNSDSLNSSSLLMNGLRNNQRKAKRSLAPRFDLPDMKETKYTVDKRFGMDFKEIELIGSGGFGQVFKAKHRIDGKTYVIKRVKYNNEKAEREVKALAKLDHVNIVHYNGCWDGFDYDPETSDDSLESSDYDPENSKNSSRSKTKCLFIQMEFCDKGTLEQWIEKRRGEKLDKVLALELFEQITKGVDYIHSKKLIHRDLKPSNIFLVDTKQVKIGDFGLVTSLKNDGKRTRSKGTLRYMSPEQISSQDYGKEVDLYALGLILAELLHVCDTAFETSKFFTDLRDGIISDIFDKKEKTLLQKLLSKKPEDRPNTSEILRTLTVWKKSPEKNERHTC

[27] = molecular target: MAP kinase-interacting serine/threonine-protein kinase 1 (Homo sapiens) (UniProt Q9BUB5); details: Compound concentration 1000.0 nM
[28] = molecular target: Maternal embryonic leucine zipper kinase (Homo sapiens) (UniProt Q14680); details: Compound concentration 1000.0 nM
[29] = molecular target: Tyrosine-protein kinase JAK2 (Homo sapiens) (UniProt O60674); details: Compound concentration 1000.0 nM
[30] = molecular target: Serine/threonine-protein kinase D1 (Homo sapiens) (UniProt Q15139); details: Compound concentration 1000.0 nM
[31] = molecular target: Serine/threonine-protein kinase PAK 2 (Homo sapiens) (UniProt Q13177); details: Compound concentration 1000.0 nM
Serine/threonine-protein kinase PAK 2 (Homo sapiens), sequence (Q13177 whole entry): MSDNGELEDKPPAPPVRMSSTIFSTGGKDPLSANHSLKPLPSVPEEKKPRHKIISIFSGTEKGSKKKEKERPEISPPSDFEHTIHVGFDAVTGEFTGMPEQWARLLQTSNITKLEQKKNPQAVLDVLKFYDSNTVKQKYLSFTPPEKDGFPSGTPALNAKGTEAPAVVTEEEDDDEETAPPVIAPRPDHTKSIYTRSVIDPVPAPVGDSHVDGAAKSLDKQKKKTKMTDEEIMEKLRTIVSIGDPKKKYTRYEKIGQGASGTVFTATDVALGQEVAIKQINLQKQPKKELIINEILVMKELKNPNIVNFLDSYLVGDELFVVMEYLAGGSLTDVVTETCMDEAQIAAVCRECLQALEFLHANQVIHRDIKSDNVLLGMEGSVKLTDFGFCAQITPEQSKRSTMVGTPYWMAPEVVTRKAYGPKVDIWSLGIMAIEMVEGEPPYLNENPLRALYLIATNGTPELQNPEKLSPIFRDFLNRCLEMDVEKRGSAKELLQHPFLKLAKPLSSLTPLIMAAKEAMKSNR

[32] = molecular target: Serine/threonine-protein kinase STK11 (Homo sapiens) (UniProt Q15831); details: Compound concentration 1000.0 nM
[33] = molecular target: Serine/threonine-protein kinase D3 (Homo sapiens) (UniProt O94806); details: Compound concentration 1000.0 nM
[34] = system: Mast/stem cell growth factor receptor Kit (Homo sapiens), P10721 [D816V]; details: Compound concentration 1000.0 nM
[35] = molecular target: Mitogen-activated protein kinase kinase kinase 4 (Homo sapiens) (UniProt Q9Y6R4); details: Compound concentration 1000.0 nM
[36] = molecular target: Alpha-2C adrenergic receptor (Homo sapiens) (UniProt P18825); details: Compound concentration 10.0 uM
[37] = molecular target: Ribosomal protein S6 kinase alpha-5 (Homo sapiens) (UniProt O75582); details: Compound concentration 1000.0 nM
[38] = molecular target: Serine/threonine-protein kinase PLK1 (Homo sapiens) (UniProt P53350); details: Compound concentration 1000.0 nM
[39] = molecular target: Cyclin-dependent kinase 3 (Homo sapiens) (UniProt Q00526); details: Compound concentration 1000.0 nM
[40] = molecular target: Dual specificity protein kinase CLK2 (Homo sapiens) (UniProt P49760); details: Compound concentration 1000.0 nM
[41] = molecular target: NT-3 growth factor receptor (Homo sapiens) (UniProt Q16288); details: Compound concentration 1000.0 nM
NT-3 growth factor receptor (Homo sapiens), sequence (Q16288 32-839 limits assumed): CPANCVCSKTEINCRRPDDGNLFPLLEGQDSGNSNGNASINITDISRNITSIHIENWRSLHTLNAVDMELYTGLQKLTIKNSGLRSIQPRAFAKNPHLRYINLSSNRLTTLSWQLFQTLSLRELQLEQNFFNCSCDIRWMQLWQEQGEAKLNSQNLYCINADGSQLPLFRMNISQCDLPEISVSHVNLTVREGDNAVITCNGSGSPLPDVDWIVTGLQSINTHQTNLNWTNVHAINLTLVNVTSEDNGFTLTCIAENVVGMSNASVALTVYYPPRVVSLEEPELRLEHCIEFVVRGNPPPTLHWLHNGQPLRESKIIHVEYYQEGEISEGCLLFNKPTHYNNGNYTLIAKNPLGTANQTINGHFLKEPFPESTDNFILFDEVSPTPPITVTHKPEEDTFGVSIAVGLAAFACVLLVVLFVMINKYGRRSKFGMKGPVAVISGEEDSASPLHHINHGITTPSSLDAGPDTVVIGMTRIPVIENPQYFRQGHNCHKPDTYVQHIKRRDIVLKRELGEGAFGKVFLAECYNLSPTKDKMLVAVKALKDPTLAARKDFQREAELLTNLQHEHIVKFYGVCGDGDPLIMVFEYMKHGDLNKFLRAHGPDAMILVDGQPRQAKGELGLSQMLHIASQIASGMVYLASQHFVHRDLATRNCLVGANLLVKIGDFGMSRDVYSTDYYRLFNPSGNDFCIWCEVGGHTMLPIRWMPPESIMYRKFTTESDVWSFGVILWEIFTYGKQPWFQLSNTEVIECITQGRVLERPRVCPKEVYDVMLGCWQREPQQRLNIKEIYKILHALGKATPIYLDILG

[42] = molecular target: G protein-coupled receptor kinase 3 (Homo sapiens) (UniProt P35626); details: Compound concentration 1000.0 nM
G protein-coupled receptor kinase 3 (Homo sapiens), sequence (P35626 whole entry): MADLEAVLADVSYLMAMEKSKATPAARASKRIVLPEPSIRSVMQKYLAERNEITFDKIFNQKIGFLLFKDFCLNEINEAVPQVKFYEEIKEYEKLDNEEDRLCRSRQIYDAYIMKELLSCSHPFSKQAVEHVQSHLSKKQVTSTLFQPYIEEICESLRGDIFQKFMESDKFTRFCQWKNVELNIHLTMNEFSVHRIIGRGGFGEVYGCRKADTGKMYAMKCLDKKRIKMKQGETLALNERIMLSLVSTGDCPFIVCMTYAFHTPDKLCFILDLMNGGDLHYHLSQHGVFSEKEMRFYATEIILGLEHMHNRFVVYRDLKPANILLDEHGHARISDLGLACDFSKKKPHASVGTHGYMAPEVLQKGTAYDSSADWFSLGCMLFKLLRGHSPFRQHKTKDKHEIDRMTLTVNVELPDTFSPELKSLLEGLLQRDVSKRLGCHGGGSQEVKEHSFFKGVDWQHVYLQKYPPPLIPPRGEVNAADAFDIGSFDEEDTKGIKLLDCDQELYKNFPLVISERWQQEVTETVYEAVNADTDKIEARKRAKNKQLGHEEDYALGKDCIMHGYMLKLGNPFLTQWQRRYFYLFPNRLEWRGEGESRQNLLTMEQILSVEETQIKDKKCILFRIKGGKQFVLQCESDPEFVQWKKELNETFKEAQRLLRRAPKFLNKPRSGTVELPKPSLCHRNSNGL

[43] = molecular target: Tyrosine-protein kinase Blk (Homo sapiens) (UniProt P51451); details: Compound concentration 1000.0 nM
[44] = molecular target: Mitogen-activated protein kinase kinase kinase kinase 4 (Homo sapiens) (UniProt O95819); details: Compound concentration 1000.0 nM
[45] = molecular target: Serine/threonine-protein kinase MARK2 (Homo sapiens) (UniProt Q7KZI7); details: Compound concentration 1000.0 nM

Compound: CCS(=O)(=O)c1cc2cc(C[C@@](O)(CC(C)(C)c3ccc(F)cc3C(N)=O)C(F)(F)F)[nH]c2cn1
- residual activity [1]: 77%
- residual activity [2]: 100%
- residual activity [3]: 92%
- residual activity [4]: 72%
- residual activity [5]: 74%
- residual activity [6]: 100%
- residual activity [7]: 100%
- residual activity [8]: 100%
- residual activity [9]: 96%
- residual activity [10]: 95%
- residual activity [11]: 90%
- inhibition [12]: 14.1%
- residual activity [13]: 71%
- residual activity [14]: 100%
- residual activity [15]: 100%
- residual activity [16]: 100%
- residual activity [17]: 100%
- residual activity [18]: 78%
- residual activity [19]: 0%
- residual activity [20]: 89%
- residual activity [21]: 97%
- residual activity [22]: 100%
- residual activity [23]: 87%
- residual activity [24]: 90%
- residual activity [25]: 51%
- residual activity [26]: 61%
- residual activity [27]: 46%
- residual activity [28]: 100%
- residual activity [29]: 100%
- residual activity [30]: 100%
- residual activity [31]: 94%
- residual activity [32]: 100%
- residual activity [33]: 100%
- residual activity [34]: 90%
- residual activity [35]: 93%
- inhibition [36]: 5.83%
- residual activity [37]: 100%
- residual activity [38]: 85%
- residual activity [39]: 73%
- residual activity [40]: 100%
- residual activity [41]: 82%
- residual activity [42]: 73%
- residual activity [43]: 100%
- residual activity [44]: 85%
- residual activity [45]: 100%

Compound: CCS(=O)(=O)c1cc2cc(C[C@](O)(CC(C)(C)c3ccc(F)cc3C(N)=O)C(F)(F)F)[nH]c2cn1
- residual activity [1]: 100%
- residual activity [2]: 100%
- residual activity [3]: 86%
- residual activity [4]: 86%
- residual activity [5]: 82%
- residual activity [6]: 89%
- residual activity [7]: 96%
- residual activity [8]: 97%
- residual activity [9]: 100%
- residual activity [10]: 94%
- residual activity [11]: 100%
- inhibition [12]: 12.6%
- residual activity [13]: 92%
- residual activity [14]: 81%
- residual activity [15]: 100%
- residual activity [16]: 82%
- residual activity [17]: 100%
- residual activity [18]: 91%
- residual activity [19]: 86%
- residual activity [20]: 100%
- residual activity [21]: 100%
- residual activity [22]: 89%
- residual activity [23]: 93%
- residual activity [24]: 100%
- residual activity [25]: 98%
- residual activity [26]: 52%
- residual activity [27]: 97%
- residual activity [28]: 100%
- residual activity [29]: 53%
- residual activity [30]: 100%
- residual activity [31]: 86%
- residual activity [32]: 100%
- residual activity [33]: 99%
- residual activity [34]: 100%
- residual activity [35]: 93%
- inhibition [36]: -1.88%
- residual activity [37]: 94%
- residual activity [38]: 100%
- residual activity [39]: 100%
- residual activity [40]: 100%
- residual activity [41]: 94%
- residual activity [42]: 100%
- residual activity [43]: 100%
- residual activity [44]: 92%
- residual activity [45]: 78%
